Values of other authors, collected in paper PMC8198792, “Prediction of Anticancer Peptides with High Efficacy and Low Toxicity by Hybrid Model Based on 3D Structure of Peptides” (International Journal of Molecular Sciences, 2021).
Where two headings read alike, the source gives them in different places.

System: cancer cell lines
Design: method as in 6 sources, ref CancerPPD [45] and SATPdb ||| ref CancerPPD/SATPdb ||| ref CancerPPD, SATPdb, Swissprot (PDB) ||| ref CancerPPD/SATPdb/Swissprot(PDB) ||| ref CancerPPD / SATPdb ||| ...
Conditions: cited from earlier work
From the text: Supplement ijms-22-05630-s001.zip/ACPs(seguence).xlsx, sheet "D1" | column: Activity || Supplement ijms-22-05630-s001.zip/ACPs(seguence).xlsx, sheet "D2" | column: Activity || Supplement ijms-22-05630-s001.zip/ACPs(seguence).xlsx, sheet "D3" | column: Activity || (+ 2 further places)

[1] = ACPs dataset D1, 1 = ACP (positive), 0 = non-ACP (negative), label taken from databases, ref CancerPPD [45] and SATPdb
[2] = ACPs dataset D4 (sheet "D4"), label 1 = ACP, experimentally validated ACPs, ref CancerPPD [45] and SATPdb
[3] = ACPs dataset D5 (sheet "D5"), label 1 = ACP (positive set), sequences with CancerPPD/SATPdb ID, ref CancerPPD, SATPdb
[4] = ACPs dataset sheet D2, 1 = ACP (CancerPPD/SATPdb ID), 0 = non-ACP (Swissprot/PDB ID), ref CancerPPD, SATPdb, Swissprot (PDB)
[5] = ACPs dataset D1, label 1 = ACP, 0 = non-ACP (non-anticancer AMPs from SATPdb), ref CancerPPD/SATPdb
[6] = ACPs dataset D4 (sheet "D4"), label 1 = ACP (CancerPPD ID), 0 = non-ACP (non-anticancer AMP, SATPdb ID), ref CancerPPD [45] and SATPdb
[7] = ACPs dataset D2 (supplement ACPs(seguence).xlsx, sheet D2), dataset label 1/0 (ACP / non-ACP), entries identified by Swissprot(PDB ID), ref CancerPPD/SATPdb/Swissprot(PDB)
[8] = ACPs dataset D5 (sheet "D5"), label 1 = ACP (positive set), 0 = non-ACP (negative set), ref CancerPPD [45] and SATPdb
[9] = ACPs dataset D3 (supplement sheet "D3"), 1 = ACP, 0 = non-ACP, ref CancerPPD [45] and SATPdb
[10] = ACPs dataset D3 (sheet "D3"), label 1 = ACP, 0 = non-ACP, ref CancerPPD/SATPdb
[11] = ACPs dataset D4 (sheet "D4"), label 1 = ACP, 0 = non-ACP, ref CancerPPD / SATPdb
[12] = ACPs dataset D5, sheet "D5", label 1 = ACP, 0 = non-ACP, ref CancerPPD [45] and SATPdb

Row | Substance | Activity [1] | Activity [2] | Activity [3] | Activity [4] | also measured
1 | AAPFLECQGRQGTCHFFAN [satpdb18859] | 1 | 1 | 1 | 1 | –
2 | ACYCRIPACLAGERRYGTCFYMGRVWAFCC [satpdb12594] | – | – | – | – | Activity [5]: 0; Activity [6]: 0
3 | AEDCVGRKACTREWYPVCGSDGVTYSNPCNFSAQQEQCDPNITIAHMGEC [2N71 NMR - A 1-50] | – | – | – | – | Activity [7]: 0; Activity [8]: 0
4 | AEVAPAPAAAAPAKAPKKKAAAKPKKAGPS [satpdb11318] | 0 | – | – | – | Activity [6]: 0
5 | AIGKFLHSAKKFGKAFVGEIMNS [compound 1041] | – | 1 | 1 | – | Activity [9]: 1
6 | AIGSILGALAKGLPTLISWIKNR [compound 4433] | 1 | 1 | 1 | 1 | –
7 | AKLkAyPLKAKLyP [satpdb12877] | – | – | – | – | Activity [10]: 0; Activity [11]: 0; Activity [12]: 0
8 | AKRHHGYKRKFH [compound 1423] | – | 1 | 1 | – | Activity [9]: 1
9 | ALALLOHALHOLALLAOHLAHOLALA [satpdb14515] | – | – | – | – | Activity [10]: 0; Activity [11]: 0; Activity [12]: 0
10 | ALLGDFFRKSKEKIGKEFKRIVQRIKDFLRNLVPRTES [satpdb12863] | – | – | – | – | Activity [5]: 0; Activity [11]: 0
11 | ALLHHGLNCAKGVLA [satpdb12694] | – | – | – | – | Activity [5]: 0; Activity [6]: 0
12 | ALSKALSKALSKALSKALSKALSK [compound 1357] | – | 1 | 1 | – | Activity [9]: 1
13 | ALWKDILKNVGKAAGKAVLNTVTDMVNQ [compound 1707] | – | 1 | 1 | – | Activity [9]: 1
14 | ALWKNMLKGIGKLAGQAALGAVKTLVGA [compound 1706] | 1 | 1 | 1 | 1 | –
15 | ALWKTLLKKVLKA [satpdb10405] | – | – | – | – | Activity [9]: 0
16 | ALWKTLLKKVLKA [satpdb11986] | – | – | – | – | Activity [10]: 0
17 | ALWKTLLKKVLKA [satpdb12593] | – | – | – | – | Activity [11]: 0; Activity [12]: 0
18 | ALWKTLLKKVLKAAAK [satpdb14616] | – | – | – | – | Activity [10]: 0; Activity [11]: 0; Activity [12]: 0
19 | ALWKTMLKKLGTMALHAGKAALGAAADTISQGTQ [compound 1708] | 1 | 1 | 1 | 1 | –
20 | ANIKLSVQMKLFKRHLKWKIIVKLNDGRELSLDA [satpdb18078] | 1 | 1 | 1 | 1 | –

Row | Substance | Activity [1] | Activity [2] | Activity [3] | Activity [4] | also measured
21 | APRLPQCQGDDQEKCLCNKDECPPGQCRFPRGDADPYCE [1DEC NMR - A 1-39] | – | – | – | – | Activity [7]: 0; Activity [8]: 0
22 | ARLKKCFNKVTGYCRKKCKVGERYEIGCLSGKLCCAN [satpdb10509] | 0 | – | – | – | Activity [6]: 0
23 | ASFPWSCPSLSGVCRKVCLPTELFFGPLGCGKGFLCGVSHFL [satpdb13301] | – | – | – | – | Activity [5]: 0; Activity [11]: 0
24 | ASSGWVCTLTIECGTVICACR [satpdb11450] | – | – | – | – | Activity [5]: 0; Activity [6]: 0
25 | ATCDLLSPFKVGHAACAAHCIARGKRGGWCDKRAVCNCRK [satpdb11323] | 0 | – | – | – | Activity [6]: 0
26 | ATYYGNGLYCNKQKCWVDWNKASREIGKIIVNGWVQHGPWAPR [satpdb12250] | – | – | – | – | Activity [5]: 0; Activity [6]: 0
27 | AWASFFKKAAHVGKHVGKAALTHYL [satpdb11738] | – | – | – | – | Activity [5]: 0; Activity [6]: 0
28 | AWKKWAKAWKWAKAKWWAKAA [compound 4482] | 1 | 1 | 1 | 1 | –
29 | CENTISGCSRADCLLTHRKQGCQKTCGLC [5WCV NMR - A 1-29] | – | – | – | 0 | Activity [8]: 0
30 | CETWRTETTGATGQASSLLSGRLLEQKAASCHNSYIVLCIENSFMTSFSK [satpdb15843] | 1 | 1 | 1 | 1 | –
31 | CKGRGKRCREKQRPSDKPRR [satpdb11644] | 1 | 1 | 1 | 1 | –
32 | CLGVGSCNDFAGCGYAIVCFW [satpdb11014] | 0 | – | – | – | Activity [6]: 0
33 | CLRIGMRGRELMGGIGKTM [satpdb12393] | – | – | – | – | Activity [5]: 0; Activity [6]: 0
34 | CSNLSTCVLGKLSQELHKLQTYPRTDVGAGTP [1BKU NMR - A 1-32] | – | – | – | 0 | Activity [8]: 0
35 | CSTNTFSLSDYWGNKGNWCTATHECMSWCK [satpdb10487] | 0 | – | – | – | Activity [6]: 0
36 | CTTGPCCRQCKLKPAGTTCWKTSLTSHYCTGKSCDCPLYPG [1MPZ NMR - A 1-41] | – | – | – | – | Activity [7]: 0; Activity [8]: 0
37 | DDTPSSRCGSGGWGPCLPIVDLLCIVHVTVGCSGGFGCCRIG [2JR3 NMR - A 1-42] | – | – | – | – | Activity [7]: 0; Activity [8]: 0
38 | DFKLFAVTIKYR [satpdb15826] | 1 | 1 | 1 | 1 | –
39 | DFKLFAVYIKYR [satpdb16901] | 1 | 1 | 1 | 1 | –
40 | DGRKICLDPDAPRIKKIVQKKL [satpdb12249] | 1 | 1 | 1 | 1 | –

Row | Substance | Activity [1] | Activity [2] | Activity [3] | Activity [4] | also measured
41 | DGVKLCDVPSGTWSGHCGSSSKCSQQCKDREHFAYGGACHYQFPSVKCFCKRQC [2N2Q NMR - A 1-54] | – | – | – | – | Activity [7]: 0; Activity [12]: 0
42 | DIEDFYTSETCPYKNDSQLAWDTCSGGTGNCGTVCCGQCFSFPVSQSCAGMADSNDCPNA [2NSW NMR - A 1-60] | – | – | – | – | Activity [7]: 0; Activity [12]: 0
43 | DKLIGSCVWGAVNYTSDCNGECKRRGYKGGHCGSFANVNCWCET [1I2U NMR - A 1-44] | – | – | – | – | Activity [7]: 0; Activity [8]: 0
44 | DKLIGSCVWGAVNYTSNCNAECKRRGYKGGHCGSFANVNCWCET [1OZZ NMR - A 1-44] | – | – | – | – | Activity [7]: 0; Activity [8]: 0
45 | DLRFWNPREKLPLPTLPPFNPKPIYIDMGNRY [satpdb12945] | – | – | – | – | Activity [5]: 0; Activity [11]: 0
46 | DLWIRETLTSPKSLTG [satpdb21617] | 1 | 1 | 1 | 1 | –
47 | DRSTREPIYMSTI [satpdb20500] | 1 | 1 | 1 | 1 | –
48 | ECRRLCYKQRCVTYCRGR [compound 4435] | 1 | 1 | 1 | 1 | –
49 | EDGLHPRLCSC [satpdb11408] | – | – | – | – | Activity [5]: 0; Activity [6]: 0
50 | EDMNQKLFDLRGKFKRPPLRRVRMSADAML [satpdb19871] | 1 | 1 | 1 | 1 | –
51 | EECGPNEVFNTCGSACAPTCAQPKTRICTMQCRIGCQCQEGFLRNGEGACVLPENC [1CCV NMR - A 1-56] | – | – | – | – | Activity [7]: 0; Activity [12]: 0
52 | EGVRNHVTCRINRGFCVPIRCPGRTRQIGTCFGPRIKCCRSW [satpdb13124] | – | – | – | – | Activity [5]: 0; Activity [11]: 0
53 | EIPSCESSASPDQSDSSVPPEE [satpdb17950] | 1 | 1 | 1 | 1 | –
54 | ENFAGGCATGYLRTADGRCKPTF [1HRL NMR - A 1-23] | – | – | – | 0 | Activity [8]: 0
55 | ERRCPRILKQCKRDSDCPGECICMAHGFCG [1EWU model - I 1-30] | – | – | – | 0 | Activity [8]: 0
56 | ESVFSKIGNAVGPAAYWILKGLGNMSDVNQADRINRKKH [satpdb11882] | – | – | – | – | Activity [5]: 0; Activity [6]: 0
57 | ETFADWWKLLAE [compound 5061] | 1 | 1 | 1 | 1 | –
58 | EYHLMNGANGYLTRVNGKTVYRVTKDPVSAVFGVISNCWGSAGAGFGPQH [satpdb10230] | 0 | – | – | – | Activity [6]: 0
59 | FAKKFAKKFKKFAKKFAKFAFAF [compound 1910] | – | 1 | 1 | – | Activity [9]: 1
60 | FAKKLAKKLKKLAKKLAKLAKKL [compound 1914] | – | 1 | 1 | – | Activity [9]: 1
